Assay [1] has as its target T1, leukocyte function-associated antigen-1 (LFA-1) (Homo sapiens, UniProt P20701).
T1 construct: gene ITGAL; αL I domain residues 128-307 (fluorescence); with integrin β2 subunit (LFA-1 heterodimer)
The assay can be described thus: cell-free LFA-1:ICAM-1 binding assay ([…] 1-AMA); fluorescence probe on the αL I domain. Type of assay: biochemical.

Assay [2] deals with T2, leukocyte function-associated antigen-1 (LFA-1) αL I domain (Homo sapiens, UniProt P20701).
T2 construct: gene ITGAL; αL I domain wild type, residues 128-307 of the integrin αL subunit
T2 sequence (P20701 153-332): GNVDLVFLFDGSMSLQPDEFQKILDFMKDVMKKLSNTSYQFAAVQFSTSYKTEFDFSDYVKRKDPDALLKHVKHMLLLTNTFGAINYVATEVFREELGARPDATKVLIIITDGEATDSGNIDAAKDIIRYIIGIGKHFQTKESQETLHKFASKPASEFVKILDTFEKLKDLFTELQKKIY
The assay can be described thus: 1-aminoanthracene fluorescence displacement; supported by cell-based ICAM-1 binding inhibition.

T1 sequence (P20701 26-1090 limits assumed): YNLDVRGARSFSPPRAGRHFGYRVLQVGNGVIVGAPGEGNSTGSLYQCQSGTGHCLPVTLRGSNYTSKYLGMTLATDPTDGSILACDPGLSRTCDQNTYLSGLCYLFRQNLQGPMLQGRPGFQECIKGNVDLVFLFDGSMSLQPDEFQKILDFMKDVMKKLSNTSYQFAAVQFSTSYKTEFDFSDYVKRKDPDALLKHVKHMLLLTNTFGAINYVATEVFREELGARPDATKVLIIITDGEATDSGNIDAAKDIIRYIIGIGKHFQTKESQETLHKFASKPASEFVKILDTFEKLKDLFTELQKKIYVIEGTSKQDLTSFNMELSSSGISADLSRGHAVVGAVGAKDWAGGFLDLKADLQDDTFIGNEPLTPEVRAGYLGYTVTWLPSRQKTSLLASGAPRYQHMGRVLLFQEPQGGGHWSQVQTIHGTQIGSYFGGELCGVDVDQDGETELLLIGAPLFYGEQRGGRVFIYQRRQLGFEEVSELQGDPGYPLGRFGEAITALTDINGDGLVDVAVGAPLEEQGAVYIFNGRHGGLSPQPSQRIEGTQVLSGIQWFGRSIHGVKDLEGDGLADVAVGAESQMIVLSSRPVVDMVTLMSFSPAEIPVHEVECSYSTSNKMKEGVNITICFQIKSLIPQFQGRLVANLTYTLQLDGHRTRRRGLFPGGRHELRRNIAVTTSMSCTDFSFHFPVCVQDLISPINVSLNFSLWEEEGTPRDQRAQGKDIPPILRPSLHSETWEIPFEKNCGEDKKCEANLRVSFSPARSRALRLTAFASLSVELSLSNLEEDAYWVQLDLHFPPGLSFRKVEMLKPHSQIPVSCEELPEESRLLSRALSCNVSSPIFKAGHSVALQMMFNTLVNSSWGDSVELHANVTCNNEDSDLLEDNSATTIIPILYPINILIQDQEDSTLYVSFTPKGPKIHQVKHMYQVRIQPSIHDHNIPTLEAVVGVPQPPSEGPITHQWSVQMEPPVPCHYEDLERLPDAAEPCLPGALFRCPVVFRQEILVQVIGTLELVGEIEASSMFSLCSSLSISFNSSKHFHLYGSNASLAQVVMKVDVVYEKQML
T1 sequence (P05107 23-700 partner limits assumed): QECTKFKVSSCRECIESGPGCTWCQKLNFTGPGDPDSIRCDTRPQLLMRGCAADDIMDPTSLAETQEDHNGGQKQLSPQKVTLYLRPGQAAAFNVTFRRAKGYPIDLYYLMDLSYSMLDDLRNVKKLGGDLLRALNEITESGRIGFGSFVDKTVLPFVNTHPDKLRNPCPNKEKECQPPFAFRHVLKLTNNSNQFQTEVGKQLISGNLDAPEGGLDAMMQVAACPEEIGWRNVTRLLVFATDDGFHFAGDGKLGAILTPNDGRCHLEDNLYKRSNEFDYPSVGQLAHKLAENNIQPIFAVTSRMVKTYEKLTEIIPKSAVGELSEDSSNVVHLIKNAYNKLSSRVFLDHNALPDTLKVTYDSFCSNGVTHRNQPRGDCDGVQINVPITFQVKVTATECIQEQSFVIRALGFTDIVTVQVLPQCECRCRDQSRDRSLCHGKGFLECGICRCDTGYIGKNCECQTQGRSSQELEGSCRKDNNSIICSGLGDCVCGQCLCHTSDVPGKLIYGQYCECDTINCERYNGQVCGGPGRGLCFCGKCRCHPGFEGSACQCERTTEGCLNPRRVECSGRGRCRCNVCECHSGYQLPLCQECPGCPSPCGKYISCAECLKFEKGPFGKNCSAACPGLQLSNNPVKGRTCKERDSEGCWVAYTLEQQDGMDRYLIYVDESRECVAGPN

With `Nc1cccc2cc3ccccc3cc12` [1-AMA, 1-aminoanthracene], the “cell-free LFA-1:ICAM-1 binding assay (10-25 μM 1-AMA); fluorescence probe on the” value in assay [1] is recorded as “As shown in Figure 2A , 1-AMA inhibited the binding of LFA-1 to its ligand ICAM-1”.
For `FC(F)OC(Cl)C(F)(F)F` (centres unmarked) [S-isoflurane], binding in assay [2] was put at a Kd of 375 µM.

The Kd is the constant that tells how readily two partners part at equilibrium. A higher Kd goes with lower affinity.
